Measured values from patent US7759331B2, “Pyridine-containing macroheterococylic compounds as kinase inhibitors” (Janssen Pharmaceutica NV, priority 2006, dated 2010).

Legend:
Experiment in all cases: Protein kinase selectivity panel
Assay type in all cases: biochemical
Settings in all cases: 1.0 μM compound, 10 μM ATP
[1] = biological target: T1, EphB4(h) (Homo sapiens, UniProt P54760)
T1 sequence (P54760 16-987): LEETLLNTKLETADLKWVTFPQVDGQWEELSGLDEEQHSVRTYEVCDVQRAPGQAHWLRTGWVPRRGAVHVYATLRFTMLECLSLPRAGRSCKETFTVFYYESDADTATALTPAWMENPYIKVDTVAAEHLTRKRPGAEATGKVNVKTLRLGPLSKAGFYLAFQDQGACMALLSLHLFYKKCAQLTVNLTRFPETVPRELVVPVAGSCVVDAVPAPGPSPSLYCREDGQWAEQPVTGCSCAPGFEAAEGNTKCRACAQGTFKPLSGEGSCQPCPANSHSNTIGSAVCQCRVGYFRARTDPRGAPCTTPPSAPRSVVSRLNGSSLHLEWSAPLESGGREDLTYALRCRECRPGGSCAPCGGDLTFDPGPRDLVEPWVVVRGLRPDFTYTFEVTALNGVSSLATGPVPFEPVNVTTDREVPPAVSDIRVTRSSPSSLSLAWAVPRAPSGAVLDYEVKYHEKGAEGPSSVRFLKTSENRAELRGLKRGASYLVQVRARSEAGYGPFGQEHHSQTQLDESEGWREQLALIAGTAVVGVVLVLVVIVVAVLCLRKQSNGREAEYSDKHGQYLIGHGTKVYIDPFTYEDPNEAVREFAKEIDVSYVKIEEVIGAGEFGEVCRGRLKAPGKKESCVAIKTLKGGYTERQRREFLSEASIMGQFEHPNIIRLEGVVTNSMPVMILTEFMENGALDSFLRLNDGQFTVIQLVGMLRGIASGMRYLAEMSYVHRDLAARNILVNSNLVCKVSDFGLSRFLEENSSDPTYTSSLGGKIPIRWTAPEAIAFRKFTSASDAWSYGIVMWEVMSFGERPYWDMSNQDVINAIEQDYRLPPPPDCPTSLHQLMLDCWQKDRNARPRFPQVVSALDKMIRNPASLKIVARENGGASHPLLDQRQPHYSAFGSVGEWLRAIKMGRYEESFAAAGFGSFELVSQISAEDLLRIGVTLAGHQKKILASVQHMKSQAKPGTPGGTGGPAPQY
Experimental: (§1) Protein kinase selectivity assays were performed as described in the scientific literature (Davies, S. P., et al., Biochem. J. 2000, 351, 95-105). Briefly, protein kinases were assayed for their ability to phosphorylate the appropriate peptide/protein substrates in the presence of 1.0 μM compound. Assays were done using 10 μM ATP and were linear with respect to time. The protein kinase selectivity assays were performed by Upstate Cell Signaling Solutions using Upstate's KinaseProfiler™ Selectivity Screening Service.

[2] = biological target: Fms(h) (Homo sapiens, UniProt P07333)
Sequence of Fms(h) (P07333 20-972): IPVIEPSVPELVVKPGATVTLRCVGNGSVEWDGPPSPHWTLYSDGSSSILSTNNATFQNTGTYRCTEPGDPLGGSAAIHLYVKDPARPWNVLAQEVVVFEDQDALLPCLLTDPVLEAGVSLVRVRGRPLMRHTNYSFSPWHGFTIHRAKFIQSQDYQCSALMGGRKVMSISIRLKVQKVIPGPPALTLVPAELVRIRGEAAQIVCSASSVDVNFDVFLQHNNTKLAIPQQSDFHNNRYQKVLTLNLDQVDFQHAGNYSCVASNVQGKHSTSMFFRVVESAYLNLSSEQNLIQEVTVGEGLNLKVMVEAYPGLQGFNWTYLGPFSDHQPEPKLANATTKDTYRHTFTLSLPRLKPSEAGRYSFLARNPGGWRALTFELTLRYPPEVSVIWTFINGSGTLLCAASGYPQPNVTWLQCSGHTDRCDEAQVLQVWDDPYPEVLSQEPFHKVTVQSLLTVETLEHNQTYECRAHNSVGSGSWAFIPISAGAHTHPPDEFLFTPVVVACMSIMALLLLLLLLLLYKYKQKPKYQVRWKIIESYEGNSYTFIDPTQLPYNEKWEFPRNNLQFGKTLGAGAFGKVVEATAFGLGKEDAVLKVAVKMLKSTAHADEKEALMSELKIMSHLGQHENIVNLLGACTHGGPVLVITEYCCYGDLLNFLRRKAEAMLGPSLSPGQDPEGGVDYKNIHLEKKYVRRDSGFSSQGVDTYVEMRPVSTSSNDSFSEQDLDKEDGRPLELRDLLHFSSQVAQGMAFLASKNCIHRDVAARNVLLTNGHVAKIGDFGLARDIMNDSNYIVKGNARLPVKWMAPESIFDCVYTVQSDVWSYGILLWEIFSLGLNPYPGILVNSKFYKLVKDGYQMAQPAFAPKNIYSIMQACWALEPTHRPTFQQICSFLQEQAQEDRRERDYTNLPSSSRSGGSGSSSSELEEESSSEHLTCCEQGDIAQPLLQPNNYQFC
Experimental: as §1

[3] = biological target: PKA(h) (Homo sapiens, UniProt P17612)
Experimental: as §1

[4] = biological target: CDK2/cyclinE(h) (Homo sapiens, UniProt P24941)
Experimental: as §1

[5] = biological target: PDGFRβ(h) (Homo sapiens, UniProt P09619)
Sequence of PDGFRβ(h) (P09619 33-1106): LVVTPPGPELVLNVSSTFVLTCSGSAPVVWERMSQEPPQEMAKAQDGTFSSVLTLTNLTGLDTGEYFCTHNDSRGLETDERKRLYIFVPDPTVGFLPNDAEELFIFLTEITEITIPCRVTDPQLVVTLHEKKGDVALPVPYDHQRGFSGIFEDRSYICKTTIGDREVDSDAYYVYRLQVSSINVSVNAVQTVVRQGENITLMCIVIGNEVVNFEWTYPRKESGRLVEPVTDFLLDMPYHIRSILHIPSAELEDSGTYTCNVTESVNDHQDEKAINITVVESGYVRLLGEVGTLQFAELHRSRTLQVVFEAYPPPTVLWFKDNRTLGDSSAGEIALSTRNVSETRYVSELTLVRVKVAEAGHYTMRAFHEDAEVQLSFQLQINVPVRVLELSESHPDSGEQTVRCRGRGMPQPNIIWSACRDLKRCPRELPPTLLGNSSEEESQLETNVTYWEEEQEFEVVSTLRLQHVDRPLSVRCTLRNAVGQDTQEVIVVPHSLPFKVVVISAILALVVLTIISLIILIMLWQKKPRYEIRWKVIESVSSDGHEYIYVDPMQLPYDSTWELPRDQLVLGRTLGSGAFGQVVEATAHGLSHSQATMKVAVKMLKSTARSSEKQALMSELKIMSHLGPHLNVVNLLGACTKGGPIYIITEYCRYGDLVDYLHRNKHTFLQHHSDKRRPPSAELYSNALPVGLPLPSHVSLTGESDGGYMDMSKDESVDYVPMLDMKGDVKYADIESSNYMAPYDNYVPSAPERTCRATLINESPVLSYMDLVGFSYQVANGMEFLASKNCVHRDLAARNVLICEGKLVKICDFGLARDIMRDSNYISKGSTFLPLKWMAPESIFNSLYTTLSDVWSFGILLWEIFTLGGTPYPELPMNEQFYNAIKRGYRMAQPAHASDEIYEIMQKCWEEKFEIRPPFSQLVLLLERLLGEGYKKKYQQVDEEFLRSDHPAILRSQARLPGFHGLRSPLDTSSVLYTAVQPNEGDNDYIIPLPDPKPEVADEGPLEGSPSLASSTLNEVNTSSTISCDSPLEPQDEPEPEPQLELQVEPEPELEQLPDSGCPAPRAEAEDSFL
Experimental: as §1

[6] = biological target: T2, PKD2(h) (Homo sapiens, UniProt Q9BZL6)
T2 sequence (Q9BZL6 1-878): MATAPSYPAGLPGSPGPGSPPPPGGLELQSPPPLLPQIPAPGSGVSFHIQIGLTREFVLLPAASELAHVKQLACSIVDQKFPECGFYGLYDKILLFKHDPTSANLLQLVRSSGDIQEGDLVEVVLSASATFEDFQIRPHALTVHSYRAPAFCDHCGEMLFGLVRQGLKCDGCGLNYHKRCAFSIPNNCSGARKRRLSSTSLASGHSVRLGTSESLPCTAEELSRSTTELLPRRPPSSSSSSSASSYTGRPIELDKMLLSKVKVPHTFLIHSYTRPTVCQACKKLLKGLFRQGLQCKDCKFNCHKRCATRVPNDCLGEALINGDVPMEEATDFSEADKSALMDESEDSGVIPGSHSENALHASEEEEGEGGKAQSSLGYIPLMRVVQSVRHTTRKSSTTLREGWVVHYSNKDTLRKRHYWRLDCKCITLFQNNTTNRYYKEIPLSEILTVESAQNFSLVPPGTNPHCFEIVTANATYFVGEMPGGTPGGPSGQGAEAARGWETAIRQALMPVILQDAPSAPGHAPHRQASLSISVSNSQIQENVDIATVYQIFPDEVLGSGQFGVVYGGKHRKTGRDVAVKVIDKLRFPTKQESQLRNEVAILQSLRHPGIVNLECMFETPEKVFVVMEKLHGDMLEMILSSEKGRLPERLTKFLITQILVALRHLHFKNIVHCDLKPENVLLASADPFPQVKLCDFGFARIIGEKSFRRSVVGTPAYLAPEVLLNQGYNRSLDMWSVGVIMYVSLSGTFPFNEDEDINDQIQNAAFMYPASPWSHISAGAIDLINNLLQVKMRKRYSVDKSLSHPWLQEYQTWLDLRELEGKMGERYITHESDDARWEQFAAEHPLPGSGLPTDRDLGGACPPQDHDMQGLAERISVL
Experimental: as §1

[7] = biological target: Lyn(h) (Homo sapiens, UniProt P07948)
Sequence of Lyn(h) (P07948 whole entry): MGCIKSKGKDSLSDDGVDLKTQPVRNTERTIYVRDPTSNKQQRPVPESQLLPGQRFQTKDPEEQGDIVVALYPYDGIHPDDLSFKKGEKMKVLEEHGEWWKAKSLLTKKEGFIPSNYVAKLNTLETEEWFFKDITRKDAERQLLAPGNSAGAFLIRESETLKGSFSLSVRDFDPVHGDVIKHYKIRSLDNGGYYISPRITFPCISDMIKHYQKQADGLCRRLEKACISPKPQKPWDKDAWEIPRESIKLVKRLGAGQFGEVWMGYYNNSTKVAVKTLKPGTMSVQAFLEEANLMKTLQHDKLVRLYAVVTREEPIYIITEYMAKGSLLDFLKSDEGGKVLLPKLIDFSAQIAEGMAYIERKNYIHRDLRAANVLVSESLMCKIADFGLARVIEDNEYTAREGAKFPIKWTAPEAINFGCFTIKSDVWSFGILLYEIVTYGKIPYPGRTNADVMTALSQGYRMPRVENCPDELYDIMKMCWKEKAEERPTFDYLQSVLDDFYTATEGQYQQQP
Experimental: as §1

[8] = biological target: Fyn(h) (Homo sapiens, UniProt P06241)
Sequence of Fyn(h) (P06241 whole entry): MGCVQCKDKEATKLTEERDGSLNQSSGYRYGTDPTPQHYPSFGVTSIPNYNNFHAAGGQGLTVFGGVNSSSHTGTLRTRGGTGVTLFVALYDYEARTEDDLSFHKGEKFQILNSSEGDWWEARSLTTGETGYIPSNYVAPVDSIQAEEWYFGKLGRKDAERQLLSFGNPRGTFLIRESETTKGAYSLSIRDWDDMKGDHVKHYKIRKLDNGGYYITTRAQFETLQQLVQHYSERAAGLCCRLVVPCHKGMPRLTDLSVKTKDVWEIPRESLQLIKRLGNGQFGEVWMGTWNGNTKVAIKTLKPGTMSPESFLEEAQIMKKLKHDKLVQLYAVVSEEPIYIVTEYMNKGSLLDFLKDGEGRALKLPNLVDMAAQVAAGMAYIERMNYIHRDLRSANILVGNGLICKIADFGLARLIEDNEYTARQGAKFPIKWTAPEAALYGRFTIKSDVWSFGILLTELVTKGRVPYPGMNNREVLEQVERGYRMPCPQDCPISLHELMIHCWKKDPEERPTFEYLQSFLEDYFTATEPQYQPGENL
Experimental: as §1

Activity at Protein Kinase Assays (% of control), EphB4(h) [1] | Activity at Protein Kinase Assays (% of control), Fms(h) [2] | Activity at Protein Kinase Assays (% of control), PKA(h) [3] | Activity at Protein Kinase Assays (% of control), CDK2/cyclinE(h) [4] | Activity at Protein Kinase Assays (% of control), PDGFRβ(h) [5] | Activity at Protein Kinase Assays (% of control), PKD2(h) [6] | Activity at Protein Kinase Assays (% of control), Lyn(h) [7] | Activity at Protein Kinase Assays (% of control), Fyn(h) [8] | Compound
109 % of control | 99 % of control | 104 % of control | 88 % of control | 103 % of control | 103 % of control | 87 % of control | 106 % of control | O=C1NC(=O)C2=C1c1cn(c3ccccc13)CCCc1cc(nc(N3CCCC3)c1)CCCn1cc2c2ccccc21 [Cpd 6, 20-pyrrolidin-1-yl-4,14,19,26-tetraazaheptacyclo[24.6.1.1^7,14.1^18,22.0^2,6.0^8,13.0^27,32]pentatriaconta-1(33),2(6),7(35),8,10,12,18(34),19,21,27,29,31-dodecaene-3,5-dione]
100 % of control | 106 % of control | 102 % of control | 88 % of control | 105 % of control | 115 % of control | 78 % of control | 103 % of control | O=C1NC(=O)C2=C1c1cn(c3ccccc13)CCCc1ccc(c(N3CCCC3)n1)CCCn1cc2c2ccccc21 [Cpd 7, 31-pyrrolidin-1-yl-5,15,25,30-tetraazaheptacyclo[27.2.2.1^5,12.1^18,25.0^6,11.0^13,17.0^19,24]pentatriaconta-1(31),6,8,10,12(35),13(17),18(34),19,21,23,29,32-dodecaene-14,16-dione]
89 % of control | 94 % of control | 90 % of control | 54 % of control | 147 % of control | 100 % of control | 107 % of control | 103 % of control | CN(C)c1nc2ccc1CCCCn1cc(c3ccccc31)C1=C(C(=O)NC1=O)c1cn(c3ccccc13)CCC2 [Cpd 1, 31-(dimethylamino)-5,15,25,32-tetraazaheptacyclo[28.2.2.1^5,12.1^18,25.0^6,11.0^13,17.0^19,24]hexatriaconta-1(32),6,8,10,12(36),13(17),18(35),19,21,23,30,33-dodecaene-14,16-dione]
103 % of control | 101 % of control | 95 % of control | 84 % of control | 101 % of control | 97 % of control | 76 % of control | 106 % of control | CN(C)c1cc2cc(n1)CCCn1cc(c3ccccc31)C1=C(C(=O)NC1=O)c1cn(c3ccccc13)CCC2 [Cpd 2, 20-(dimethylamino)-4,14,19,26-tetraazaheptacyclo[24.6.1.1^7,14.1^18,22.0^2,6.0^8,13.0^27,32]pentatriaconta-1(33),2(6),7(35),8,10,12,18(34),19,21,27,29,31-dodecaene-3,5-dione]
